Test results taken from paper PMC11881343, “Safety of ilunocitinib tablets (Zenrelia™) after once daily oral administration in dogs” (BMC Veterinary Research, 2025).

What was measured:
[1] = 6-month safety study: body weights and food consumption; format: in vivo, dog
Protocol: (§1) Endpoints measured multiple times post-treatment that included a pre-treatment measurement (Serum chemistry, C-reactive protein, coagulation, hematology, urinalysis, body weight, body weight changes and food consumption) were analyzed using repeated measures analysis of covariance (RMANCOVA) with ‘treatment’, ‘time’, and ‘sex’; the two-way interactions ‘treatment by time’, ‘treatment by sex’, and ‘sex by time’; the three-way interaction ‘treatment by time by sex’ and a covariate all as fixed effects. The last available pre-treatment value was used as the covariate.

[2] = dog, in vivo
Protocol: Samples were collected at pre-dose and at 0.5, 1, 2, 5, 8 and 24 h post-dosing on the day of the first and last dose (study days 1 and 182) and at pre-dose and at 1 and 24 h post-dosing at study day 85. Blood samples were collected in tubes containing K2 EDTA. Blood was processed to plasma within one hour of collection and plasma samples were stored frozen at -20 °C until analyzed.
The bioanalytical data were processed as individual concentration vs. time profiles using a non-compartmental analysis (NCA). Calculations were performed with the software Phoenix WinNonlin (version 8.3; Certara, USA). Tmax and Cmax were derived from observed values. AUCs were calculated using the Linear Up Log Down method. In addition, T1/2 was calculated using the best fit method and dose, time and sex effects were evaluated based on Cmax and AUClast ratios.

dogs = test system: dogs; parameters: method as in internal report; conditions: dogs maintained on concrete floors with corn cob bedding; ref internal report; cited from earlier work
healthy Beagle dogs = experiment: 6-month safety study: clinical pathology (hematology, coagulation, clinical chemistry, C-reactive protein, urinalysis); format: in vivo, dog; conditions: for MCHC, effect compared to 0X / Hb (hemoglobin), effect compared to 0X / Total Protein, effect compared to 0X / MCH, effect compared to 0X / HCT (hematocrit), effect compared to 0X / RBC, effect compared to 0X: all study days; for Hb (hemoglobin), effect compared to 0X / HCT (hematocrit), effect compared to 0X / RBC, effect compared to 0X: pooled sexes; for Total Protein, effect compared to 0X: significant in pooled by sex, males (2X, 3X, 5X) females (3X, 5X); for Albumin, effect compared to 0X: beginning on study day 57; for Eosinophils, effect compared to 0X: study days 29–183, females only; for Fibrinogen, effect compared to 0X: study days 57–183, association with interdigital cysts
Protocol: Blood samples were collected from the jugular vein for the evaluation of hematology, clinical chemistry and coagulation variables at pre-test, and on study days 29, 57, 85, 113, 141, 169 and 183. The complete panel of clinical pathology parameters (hematology, blood chemistry and urinalysis) according to VICH Guideline 43 [10] are listed in Table 1. Urine samples were collected using steel pans placed under the cages for at least 16 h at the same timepoints.
as §1
If the interaction terms were significant (P ≤ 0.10 level for two-way interactions and P ≤ 0.05 for the three-way interaction), treated groups were compared to the control either within each sex (treatment by sex significant), within each time point (treatment by time significant) or main effect only (neither treatment by sex nor treatment by time significant).

[3] = 1X group (0.8 mg/kg/day, 6 months)
[4] = 2X group (1.6 mg/kg/day, 6 months)
[5] = 3X group (2.4 mg/kg/day, 6 months)
[6] = 5X group (4.0 mg/kg/day, 6 months)
[7] = males at 2X, 3X, and 5X and females at 5X, beginning study day 57, 85, or 113 through study day 183

SMILES: N#CCC1(n2cc(-c3ncnc4[nH]ccc34)cn2)CN(S(=O)(=O)C2CC2)C1 [ilunocitinib]
- Body weight gain [1, 3]: 0.06 ± 0.02 kg
- mean body weight (± standard error) throughout the study [1, 3]: 10.30 ± 0.20 kg
- body weight, treatment effect vs control ([1]; 1X, 3X and 5X groups, main effect of treatment p = 0.0026): statistically significant increases
- Body weight gain [1, 4]: 0.03 ± 0.02 kg
- mean body weight (± standard error) throughout the study [1, 4]: 9.76 ± 0.20 kg
- body weight change, treatment effect vs control ([1]; 3X and 5X, main effect of treatment p = 0.0952): statistically significant increases
- Body weight gain [1, 5]: 0.06 ± 0.02 kg
- mean body weight (± standard error) throughout the study [1, 5]: 10.31 ± 0.20 kg
- Body weight gain [1, 6]: 0.06 ± 0.02 kg
- mean body weight (± standard error) throughout the study [1, 6]: 10.46 ± 0.20 kg
- weekly averaged daily food consumption, treatment effect ([1]; all dose groups): statistically significant (p = 0.0872) time by treatment interaction
- half-life [2]: approximately 3 h
- increase of exposure with dose [2]: close to dose proportional
- interdigital cysts (IDC) (dogs): not observed
- red cell parameters (healthy Beagle dogs; 1X group): stayed within the reference range
- MCHC, effect compared to 0X (healthy Beagle dogs; 2X (1.6 mg/kg/day)): minimally lower and ↓
- Hb (hemoglobin), effect compared to 0X (healthy Beagle dogs; 2X (1.6 mg/kg/day)): minimally lowered and ↓
- Total Protein, effect compared to 0X (healthy Beagle dogs; 2X (1.6 mg/kg/day)): ↑
- MCH, effect compared to 0X (healthy Beagle dogs; 3X (2.4 mg/kg/day)): minimally lower and ↓
- MCHC, effect compared to 0X (healthy Beagle dogs; 3X (2.4 mg/kg/day)): minimally lower and ↓
- HCT (hematocrit), effect compared to 0X (healthy Beagle dogs; 3X (2.4 mg/kg/day)): ↓
- Hb (hemoglobin), effect compared to 0X (healthy Beagle dogs; 3X (2.4 mg/kg/day)): minimally lowered and ↓
- RBC, effect compared to 0X (healthy Beagle dogs; 3X (2.4 mg/kg/day)): ↓
- Total Protein, effect compared to 0X (healthy Beagle dogs; 3X (2.4 mg/kg/day)): ↑
- Albumin, effect compared to 0X (healthy Beagle dogs; 3X (2.4 mg/kg/day)): minimally lower and ↓
- Total Protein, effect compared to 0X (time by treatment interaction) (healthy Beagle dogs; 3X (2.4 mg/kg/day), study day 113): minimally higher means and ↑
- Eosinophils, effect compared to 0X (healthy Beagle dogs; 3X (2.4 mg/kg/day)): ↓
- Fibrinogen, effect compared to 0X (healthy Beagle dogs; 3X (2.4 mg/kg/day)): marginally elevated concentrations and ↑
- MCH, effect compared to 0X (healthy Beagle dogs; 5X (4.0 mg/kg/day)): minimally lower and ↓
- MCHC, effect compared to 0X (healthy Beagle dogs; 5X (4.0 mg/kg/day)): minimally lower and ↓
- HCT (hematocrit), effect compared to 0X (healthy Beagle dogs; 5X (4.0 mg/kg/day)): ↓
- Hb (hemoglobin), effect compared to 0X (healthy Beagle dogs; 5X (4.0 mg/kg/day)): minimally lowered and ↓
- RBC, effect compared to 0X (healthy Beagle dogs; 5X (4.0 mg/kg/day)): ↓
- Total Protein, effect compared to 0X (healthy Beagle dogs; 5X (4.0 mg/kg/day)): ↑
- Albumin, effect compared to 0X (healthy Beagle dogs; 5X (4.0 mg/kg/day)): minimally lower and ↓
- Eosinophils, effect compared to 0X (healthy Beagle dogs; 5X (4.0 mg/kg/day)): ↓
- Fibrinogen, effect compared to 0X (healthy Beagle dogs; 5X (4.0 mg/kg/day)): marginally elevated concentrations and ↑
- Total Protein, effect compared to 0X (time by treatment interaction) (healthy Beagle dogs; 5X (4.0 mg/kg/day), study days 85,113,141): minimally higher means and ↑
- myeloid: erythroid ratios (healthy Beagle dogs; Two dogs in the 5X group): minimally lower
- effects on lymphocytes, monocytes, basophils and reticulocytes (healthy Beagle dogs; all dose levels): no treatment-related effects
- alkaline phosphatase, alanine aminotransferase, aspartate aminotransferase, triglycerides, plasma creatinine and urea levels or any other clinical chemistry parameters (healthy Beagle dogs; all treatment groups, within normal ranges): No changes
- effects on urinalysis endpoints (healthy Beagle dogs; either sex at any dose level): no test article-related effects
- C-reactive protein (CRP) levels (healthy Beagle dogs; elevated doses, dogs with visible skin disease): higher
- Total protein values in males vs control (healthy Beagle dogs; males at 2X, 3X, and 5X): significantly (p = 0.0437) higher
- Mean globulin concentrations vs control means (healthy Beagle dogs; [7]): minimally higher
- mean albumin/globulin ratios vs control means (healthy Beagle dogs; [7]): minimally to mildly lower
- prothrombin time and activated partial thromboplastin time (healthy Beagle dogs; throughout the study, all dose levels): remained in the reference range
